{"source": "patent US10966426B2", "about": "“Herbicidal compositions comprising phenylpyrimidines” (BASF SE, priority 2016, dated 2021)", "type_in_all_cases": "in vivo", "key": {"Digitaria sanguinalis": {"test_system": "Digitaria sanguinalis", "test": "greenhouse post-emergence treatment, DIGSA", "conditions": "Digitaria sanguinalis, 480 h, 20 DAT, DIGSA", "how_it_was_run": "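Seeds sown per species in loamy sand substrate (about 3.0% humus); some raised separately and transplanted shortly before treatment. Treatments applied in water post-emergence, plants held at 10-25° C. or 20-35° C. by species, then scored after 2 to 4 weeks, where 100 means total kill and 0 no damage.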"}, "Papaver rhoeas": {"test_system": "Papaver rhoeas", "test": "greenhouse post-emergence treatment, PAPRH", "conditions": "Papaver rhoeas, 480 h, 20 DAT, PAPRH", "how_it_was_run": "(§1)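 Visual herbicidal effect (0–100) recorded over a 2 to 4 week test period after foliar treatment at plant heights of 3 to 15 cm. Expected combination effects derived by the Colby formula from single-component effects X and Y.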"}, "Echinocloa crus-galli": {"test_system": "Echinocloa crus-galli", "test": "greenhouse post-emergence treatment, ECHCG", "conditions": "ECHCG, 20 DAT", "how_it_was_run": "as §1"}}}
{"smiles": "CC(C)N1C(=O)c2ccccc2NS1(=O)=O", "note": "[bentazon]", "values": [{"measurement": "inhibition at 30 g/ha", "setting": "Digitaria sanguinalis; 30 gai/ha (SL 480 g/l), Table X3, read-out: % activity, solo application", "value": 0, "unit": "%"}, {"measurement": "inhibition at 60 g/ha", "setting": "Digitaria sanguinalis; 60 gai/ha (SL 480 g/l), Table X3, read-out: % activity, solo application", "value": 0, "unit": "%"}, {"measurement": "pest or weed control at 30 g/ha", "setting": "Digitaria sanguinalis; bentazon solo 30 gai/ha", "value": 0, "unit": "%"}, {"measurement": "pest or weed control at 60 g/ha", "setting": "Digitaria sanguinalis; bentazon solo 60 gai/ha", "value": 0, "unit": "%"}, {"measurement": "pest or weed control at 120 g/ha", "setting": "Digitaria sanguinalis; bentazon solo 120 gai/ha", "value": 0, "unit": "%"}, {"measurement": "pest or weed control at 240 g/ha", "setting": "Digitaria sanguinalis; bentazon solo 240 gai/ha", "value": 30, "unit": "%"}, {"measurement": "inhibition at 120 g/ha", "setting": "Papaver rhoeas; 120 gai/ha (SL 480 g/l), Table X3, read-out: % activity, solo application", "value": 0, "unit": "%"}, {"measurement": "pest or weed control at 30 g/ha", "setting": "Papaver rhoeas; bentazon solo 30 gai/ha", "value": 0, "unit": "%"}, {"measurement": "pest or weed control at 60 g/ha", "setting": "Papaver rhoeas; bentazon solo 60 gai/ha", "value": 0, "unit": "%"}, {"measurement": "pest or weed control at 120 g/ha", "setting": "Papaver rhoeas; bentazon solo 120 gai/ha", "value": 0, "unit": "%"}, {"measurement": "% activity", "setting": "Echinocloa crus-galli; bentazon solo 30 gai/ha", "value": 0, "unit": "%"}, {"measurement": "% activity", "setting": "Echinocloa crus-galli; bentazon solo 60 gai/ha", "value": 0, "unit": "%"}, {"measurement": "% activity", "setting": "Echinocloa crus-galli; bentazon solo 120 gai/ha", "value": 0, "unit": "%"}, {"measurement": "% activity", "setting": "Echinocloa crus-galli; bentazon solo 240 gai/ha", "value": 20, "unit": "%"}, {"measurement": "inhibition at 60 g/ha", "setting": "Echinocloa crus-galli; Echinochloa crus-galli, 480 h, 60 gai/ha (SL 480 g/l), Table X3, read-out: % activity, solo application", "value": 0, "unit": "%"}, {"measurement": "inhibition at 120 g/ha", "setting": "Echinocloa crus-galli; Echinochloa crus-galli, 480 h, 120 gai/ha (SL 480 g/l), Table X3, read-out: % activity, solo application", "value": 0, "unit": "%"}, {"measurement": "inhibition at 240 g/ha", "setting": "Echinocloa crus-galli; Echinochloa crus-galli, 480 h, 240 gai/ha (SL 480 g/l), Table X3, read-out: % activity, solo application", "value": 20, "unit": "%"}]}
